The target in data set [1] is T1, human DDX3 (ATPase activity) (Homo sapiens, UniProt O00571).
T1 construct: made in house; host or cells: E. coli
Kind of data set: Human DDX3 ATPase activity assay (luciferase-based luminescence). The data set is classed as biochemical. The following applies: DDX3 ATPase activity; read-out: Ki (μM), apparent equilibrium dissociation constant for the inhibitor to the target enzyme DDX3.

In a further data set the test system is wild type HIV-1 strain. In words: HIV-1 single round replication in HeLaCD4+ cells. The data set is classed as cell-based. The following applies: wild type HIV-1, 0.3 μM and 3 μM doses, 72 h post infection. The procedure: (§1) FIG. 1. A) Antiviral activity (expressed as % of viral load with respect to the control) of compounds FE56 and FE66 at 0.3 μM and 3 μM doses against single round HIV-1 replication in HeLaCD4+ cells infected with a wild type HIV-1 strain. Measurements were performed at 72 h post infection. B) Antiviral activity of compounds FE15 and FE66 on HIV-1 replication in phytohemagglutinin-stimulated peripheral blood mononuclear cells (PBMCs) […] with HeLa CD4^+-cell culture supernatants containing wild type HIV. Compounds were tested at 50 μM (FE15) and 5 μM (FE66). The HIV-1 RNA was quantified in the cell culture supernatant after 3, and 5 days of incubation. Results are expressed as HIV RNA copies/ml. Control (white bars).
Selected compounds from Table 1 were tested against HIV-1 replication in two different model systems.

A further data set deals with HIV-1. In words: Antiviral assay, HIV-1 replication in infected PBMCs (viral RNA in supernatant). It is filed as cell-based. To be noted: for EC50: Human immunodeficiency virus 1, PBMC; for viral RNA, multiple rounds of replication: PBMC, wild type HIV-1, 5 days post infection, FE15 50 μM, FE66 (35b) 5 μM. The procedure:
as §1
FIG. 2. Antiviral activity of DDX3 inhibitors. A) Comparison of the antiviral activity (expressed as % of viral RNA with respect to the control) on infected PBMCs of a fixed dose of selected inhibitors. Measurements were performed at 72 h post infection. Values are the means of three independent replicates. Error bars are ±SD. White bars: control without drugs; dark grey bar: positive control with AZT (0.01 μM); black bar: first generation inhibitor FE15 (50 μM); light grey bars: second generation DDX3 inhibitors FE66, 11d and 38 (3 μM). B) Dose-response curves for the inhibiton of HIV-1 replication (expressed as % of viral RNA with respect to the control) in infected PBMCs by FE15 (circles) and 38 (triangles). Measurements were performed at 72 h post infection. Values are the means of three independent replicates. Error bars are ±SD.
In detail, 0.5 μg of each HIV-1 plasmid construct was transfected into CD4 HeLa cells by using the lipofectin reagent, according to the recommendations of the manufacturer (Invitrogen, Groningen, The Netherlands). After 3 days of incubation at 37° C., the cell supernatants, which contained reconstituted viable recombinant viruses, were collected. Quantification of the newly produced recombinant strains was obtained by determination of the HIV RNA copy number in the cell culture supernatants. Successively, 10 ml of transfected HeLa CD4^+-cell culture supernatants containing wild-type, and mutated recombinant HIV strain […], was used to infect aliquots of 10×10^6 phytohemagglutinin-stimulated peripheral blood mononuclear cells (PBMCs) from HIV-seronegative blood donors. After 4 h of incubation, supernatants were removed and infected PBMCs were incubated at 37° C. in 10 ml of RPMI 1640 medium (Eurobio, Les Ulis Cedex B, France) supplemented with 20% fetal calf serum (Life Technologies, Ltd., Paisley, Scotland), 2 mM l-glutamine, 100 U of penicillin per ml, 100 μg of streptomycin per ml, 10% interleukin-2 (ZeptoMetrix Co., Buffalo, N.Y.), 5 μg of hydrocortisone (Sigma Chemical Co.) per ml and with fourfold dilutions of antiretroviral drugs. No-drug controls for each drug dilution were included in each assay. After 3, 5 and 7 days of incubation the HIV-1 RNA in the cell culture supernatant was quantified. Recombinant HIV-1 strains from treatment-naive patients and multidrug resistance-associated changes were assayed in parallel. The degree of inhibition of viral replication was measured by determining the HIV-1 RNA level in the supernatants of cell cultures and was expressed as the fold increase in the 50% inhibitory concentrations (IC50s) for resistant recombinant HIV-1 variants compared with the IC50s for the wild-type recombinant variant. Each test was performed in triplicate.

Data set [2] in a line: Cell viability / cytotoxicity on HeLa cells. To be noted: human, HeLa cells (cervical cancer cell line). The data set is classed as cell-based. The procedure:
(§2) Cell viability in the presence of the compounds has been determined by standard MTT assays.
(§3) Selected compounds from Table 1 were tested against the cervical cancer HeLa cell line for antiproliferative activity. Cell viability was measured with the CellTiter viability assay (Table 2). Table 3 lists the calculated antiproliferative potencies (EC50, dose required to suppress 50% of cell viability) for a series of representative compounds of the invention.

For the next data set, the system named is HeLa cells. Kind of data set: Cell viability / cytotoxicity on HeLa cells. It is filed as cell-based. The following applies: for Selectivity index HeLa, CC50/EC50: HeLa CC50 / antiviral EC50. The procedure:
as §2, §3

Data set [3] in a line: Cell viability / cytotoxicity on MOLT-4 cells. It is filed as cell-based. To be noted: human, MOLT-4 cells; MOLT-4; Table 2 prints no unit; read-out: Cytotoxicity (CC50) MOLT-4, dose required to reduce 50% cell vitality.
Description: as §2

The next data set relates to MOLT-4. Kind of data set: Cell viability / cytotoxicity on MOLT-4 cells. It is filed as cell-based. The following applies: MOLT-4 CC50 / antiviral EC50.
Description: as §2

A short description of data set [4]: Cell viability / cytotoxicity on PBMCs. The following applies: human; PBMCs; Table 2 prints no unit; read-out: Cytotoxicity (CC50) PBMCs, dose required to reduce 50% cell vitality. The data set is classed as cell-based.
Description: as §2

A further data set deals with PBMCs. Kind of data set: Cell viability / cytotoxicity on PBMCs. The data set is classed as cell-based. To be noted: PBMCs CC50 / antiviral EC50.
Description: as §2

For data set [5], the system named is cervical cancer HeLa cell line. Kind of data set: Antiproliferative activity against HeLa cells (CellTiter viability assay). The data set is classed as cell-based. The following applies: Homo sapiens. On the procedure: as §3
Where [6] appears, read: 72 h, read-out: EC50, anti-HIV activity.
[7] abbreviates: read-out: Antiviral activity, dose required to reduce 50% viral proliferation (measured as viral RNA load).
Setting [8] is: HeLa, Table 2 prints no unit, text gives μM, read-out: Cytotoxicity (CC50) HeLa, dose required to reduce 50% cell vitality.

The results in this text go back to patent US20120202814A1, “COMPOUNDS WITH DDX3 INHIBITORY ACTIVITY AND USES THEREOF” (UNIVERSITÀ DEGLI STUDI DI SIENA, priority 2009, published 2012).

Like-named read-outs stand apart in the source and are kept apart here. Where only a bound is given, the exact number is not on record here.

T1 sequence (O00571 whole entry): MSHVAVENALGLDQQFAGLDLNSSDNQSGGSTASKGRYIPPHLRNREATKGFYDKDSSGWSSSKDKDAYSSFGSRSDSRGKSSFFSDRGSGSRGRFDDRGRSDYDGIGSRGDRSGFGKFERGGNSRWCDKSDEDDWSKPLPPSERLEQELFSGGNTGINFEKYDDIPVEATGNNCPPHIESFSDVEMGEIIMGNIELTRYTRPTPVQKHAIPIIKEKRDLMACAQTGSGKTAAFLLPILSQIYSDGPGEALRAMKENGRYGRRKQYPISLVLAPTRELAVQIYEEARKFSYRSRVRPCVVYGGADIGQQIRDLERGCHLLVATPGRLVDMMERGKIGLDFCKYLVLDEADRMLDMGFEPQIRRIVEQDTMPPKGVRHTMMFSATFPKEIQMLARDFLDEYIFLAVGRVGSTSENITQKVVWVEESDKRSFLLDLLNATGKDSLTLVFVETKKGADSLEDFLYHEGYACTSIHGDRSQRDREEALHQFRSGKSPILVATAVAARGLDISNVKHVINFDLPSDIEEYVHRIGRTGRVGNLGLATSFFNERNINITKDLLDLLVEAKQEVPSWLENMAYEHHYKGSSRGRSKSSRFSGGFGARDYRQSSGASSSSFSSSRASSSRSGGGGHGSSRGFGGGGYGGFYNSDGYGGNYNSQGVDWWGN

Take `O=C1Nc2ccccc2/C1=N/Nc1nc(Nc2ccccc2)nc(Nc2ccccc2)n1` [FE-56]: in data set [1], the Ki was found to be 0.4 µM. The “viral load (viral RNA copies), single-round replication” value with wild type HIV-1 strain was “dose-dependent reduction of viral load”.

A word on the CC50: it is the concentration at which the toxic effect on the cells reaches its halfway point. Usually melting point stands for the temperature, or range, at which the solid turns liquid. The compound `O=C(CCN1C(=O)/C(=C/c2cccc(F)c2)SC1=S)Nc1ccccc1O` [Compound 35b, 3-((Z)-5-(3-Fluorobenzylidene)-4-oxo-2-thioxothiazolidin-3-yl)-N-(2-hydroxyphenyl) propanamide] gave a melting point of 210 to 211 °C. Further, in data set [1], the Ki was 0.3 µM. The EC50 with HIV-1 (setting [6]) came to 7.5 µM. For the same compound, the EC50 with HIV-1 (setting [7]) worked out at 7.5 ± 0.7 µM. In the data set with HIV-1, the “viral RNA, multiple rounds of replication” value is on record as “significant reduction of viral RNA”. Moreover, in the data set with wild type HIV-1 strain, the “viral load (viral RNA copies), single-round replication” value is given as “dose-dependent reduction of viral load”. For the same compound, in [2] (setting [8]), the CC50 came out at 50 ± 5 µM. The “Selectivity index HeLa, CC50/EC50” value in the data set with HeLa cells was 6.7. Further, the CC50 in data set [3] worked out at 50 ± 10 µM. In addition, the “Selectivity index MOLT-4, CC50/EC50” value with MOLT-4 came out at 6.7. In addition, in [4], the CC50 was 50 ± 5 µM. Also, in the data set with PBMCs, the “Selectivity index PBMCs, CC50/EC50” value came to 6.7. Moreover, the EC50 in data set [5] (48 hours, read-out: EC50 (μM) 48 hours, dose required to suppress 50% of cell viability) came to 50 µM. Besides, in data set [5] (72 hours, read-out: EC50 (μM) 72 hours, dose required to suppress 50% of cell viability), the EC50 amounted to 10 µM.

The compound `O=C(CCN1C(=O)/C(=C/c2cccc(Br)c2)SC1=S)Nc1ccccc1O` [FE-15, (Z)-3-(5-(3-Bromobenzylidene)-4-oxo-2-thioxothiazolidin-3-yl)-N-(2-hydroxyphenyl)propanamide] gave a melting point of 222 to 224 °C. For the same compound, the Ki in data set [1] turned out to be 4.5 µM. For the same compound, in the data set on HIV-1 (HIV-1 infected PBMCs, compound at 50 μM, 72 h post infection), the “reduction of viral load compared with 11d and 38 at 3 μM” value was “comparable effects”. For the same compound, in the data set with HIV-1 (setting [6]), the EC50 amounted to 83 µM. Moreover, the EC50 in the data set with HIV-1 (setting [7]) was determined as 83 ± 7 µM. For the same compound, the “viral RNA, multiple rounds of replication” value in the data set with HIV-1 is “significant reduction of viral RNA”. Moreover, the CC50 in data set [2] (read-out: CC50, cytotoxicity on HeLa cells) was above 200 µM. For the same compound, the “Selectivity index HeLa, CC50/EC50” value in the data set with HeLa cells is given as 2.4. The CC50 with HeLa cells (setting [8]) is above 200 µM. Besides, the CC50 in [3] is above 200 µM. Further, the “Selectivity index MOLT-4, CC50/EC50” value in the data set on MOLT-4 was found to be 2.4. Further, the CC50 in [4] is above 150 µM. The “Selectivity index PBMCs, CC50/EC50” value in the data set on PBMCs was found to be 1.8.

In the case of `Oc1ccccc1/C=N/Nc1nc(Nc2ccc(F)cc2)nc(N2CCOCC2)n1` [Compound 16c], in the data set with HIV-1 (setting [7]), the EC50 is 2.5 ± 0.1 µM. Moreover, the CC50 amounted to 2.5 ± 0.3 µM in data set [2] (setting [8]), 5 ± 1 µM in data set [3] and 10 ± 1 µM in [4]. Further, in the data set with HeLa cells, the “Selectivity index HeLa, CC50/EC50” value was determined as 1.0. Further, in the data set with MOLT-4, the “Selectivity index MOLT-4, CC50/EC50” value was 2.0. Besides, in the data set on PBMCs, the “Selectivity index PBMCs, CC50/EC50” value is 4.0.

Consider `Oc1ccccc1/C=N/Nc1nc(Nc2ccc(F)cc2)nc(Nc2ccc(F)cc2)n1` [Compound 38, (E)-2-((2-(4,6-bis(4-Fluorophenylamino)-1,3,5-triazin-2-yl)hydrazono)methyl)phenol], for which the Ki in data set [1] came to 0.1 µM. Besides, in the data set on HIV-1 (HIV-1 infected PBMCs, ratio of EC50), the “fold higher antiviral potency than the inhibitor FE15” value came to 41 fold. For the same compound, the EC50 with HIV-1 (setting [6]) came to 2 µM; in the data set on HIV-1 (setting [7]), 2 ± 0.2 µM. Further, the values for the half-maximal cytotoxic concentration (CC50) in [2] (setting [8]), in data set [3] and in [4] were 20 ± 2 µM, 10 ± 1 µM and 8 ± 0.5 µM, respectively. For the same compound, the “Selectivity index HeLa, CC50/EC50” value in the data set with HeLa cells is recorded as 10. Besides, the “Selectivity index MOLT-4, CC50/EC50” value with MOLT-4 worked out at 5.0. Also, the “Selectivity index PBMCs, CC50/EC50” value with PBMCs is reported as 4.0.
